Laboratory results from US20110053996A1, “Use of phenyltriazoles for controlling insects and spider mites by watering, droplet application or dip application or by treating seed” (Bayer CropScience AG, priority 2009, published 2011).

How the values were obtained:
Tetranychus urticae = Tetranychus urticae test on bush beans; drench application; type: in vivo; details: bush bean plants, 0.25 mg of ai/plant, 14 days after infestation
Method: (§1) To produce a suitable preparation of active compound, 1 part by weight of active compound is mixed with the stated amounts of solvent and emulsifier, and the concentrate is diluted with water to the desired concentration.
Bush bean plants (Phaseolus vulgaris) are watered with the respective product solution. The stated concentration refers to the amount of active compound per plant. After about 1 week, the treated plants are infested with the greenhouse red spider mite (Tetranychus urticae).
After 2 weeks, the effect in % is determined. 100% means that all of the spider mites have been killed; 0% means that none of the spider mites have been killed.

Liriomyza trifolii = Liriomyza trifolii test on bush beans; drench application; type: in vivo; details: bush bean plants, 0.5 mg of ai/plant, 14 days after infestation
Method: as §1
Bush bean plants (Phaseolus vulgaris) are watered with the respective product solution. The stated concentration refers to the amount of active compound per plant. After about 1 week, the treated plants are infested with the leaf-mining fly (Liriomyza trifolii).
After 2 weeks, the effect in % is determined. 100% means that all of the leaf-mining flies have been killed; 0% means that none of the leaf-mining flies have been killed.

Cc1cc(F)c(-n2nc(C(F)(F)F)nc2N)cc1[S+]([O-])CC(F)(F)F (centres unmarked) [(I-4)]
% Activity (according to Abbott) (Tetranychus urticae): 100% | % Activity (according to Abbott) (Liriomyza trifolii): 100%
